Where a name gives a salt, the structure may show the parent alone.
What was measured:
[1] = Odor of the dried product (sign of decomposition / acid smell); assay type: physicochemical; details: dried solid product
Method: According to one embodiment, 96.7 grams (0.6 mole) of L-carnitine inner salt (C7H15NO3, molecular weight 161.20) was added to a 50% aqueous solution (having a pH value <1) of 66.0 grams (0.1 mole) phytic acid and stirred at room temperature resulting in an exothermic reaction. […] According to one embodiment, the solution (having a pH value of about 4) was further stirred 20 minutes. […] According to one embodiment, the residue is further dried in a vacuum oven at 50° C. to obtain 166.2 grams of white solid powder with an almost quantitative yield (i.e., the white solid powder contains 2% H2O).
According to one embodiment, 122.09 grams (0.6 mole) of acetyl L-carnitine inner salt (C9H17NO4, molecular weight 203.24) was added to a 50% aqueous solution (having a pH value <1) of 66.0 grams (0.1 mole) phytic acid and stirred at room temperature resulting in an exothermic reaction. […] According to one embodiment, the residue is further dried in a vacuum oven at 50° C. to obtain 192.7 grams of white solid powder with an almost quantitative yield (i.e., the white solid powder contains 2% H2O). […]

[2] = pH value of the product (c=1% H2O); assay type: physicochemical
Method: According to one embodiment, the solution (having a pH value of about 4) was further stirred 20 minutes. According to one embodiment, the solution was concentrated on an evaporator under a vacuum at 50° C. According to one embodiment, the residue was repeatedly (3 times) taken up using anhydrous ethanol under a vacuum to dry the solution as much as possible.

[3] = cited from earlier work
[4] = tested on: human mammary cancer cell line; details: incubated with a human mammary cancer cell line; cited from earlier work
[5] = post-administration, independent of route; cited from earlier work
mice = assay: Single dose oral acute toxicity study (LD50); assay type: in vivo
Method: The single dose oral acute toxicity of L-carnitine phytate (in a 6:1 mole ratio) was evaluated in mice. Five dosages (25, 20, 15, 10, and 5 g/Kg) were orally administrated to five groups of mice in which each group had five male and five female mice. After dosing, the five groups of mice were observed and daily records (for 14 days) were made of their general conditions, toxic response, and deaths. All of the dead mice were necropsied, in which each of the body's thorace and abdomen were opened, and each heart, liver, spleen, lung, kidney, and intestine were examined and recorded.

For `CC(=O)O[C@H](CC(=O)O)C[N+](C)(C)C` [Example Embodiment 3, Acetyl L-Carnitine Phytate (in a 6:1 mole ratio)], the odor [1] was “odorless” and the pH value [2] was 4.
`CC(C)C(=O)O[C@H](CC(=O)O)C[N+](C)(C)C` [Example Embodiment 6, Isobutyryl L-Carnitine Phytate (in a 6:1 mole ratio)] showed a pH value [2] of 4.
For `C[N+](C)(C)C[C@H](O)CC(=O)[O-]` [L-carnitine's inner salt, L-carnitine inner salt], the pKa value [3] is listed as 3.8.
For `O=P(O)(O)O[C@H]1[C@H](OP(=O)(O)O)[C@@H](OP(=O)(O)O)[C@H](OP(=O)(O)O)[C@@H](OP(=O)(O)O)[C@H]1OP(=O)(O)O` [phytic acid, Phytic acid], the “time of first detection of IP6 in cells” value [4] is given as “as early as one minute post-incubation”, the “pKa of the remaining three very weakly acidic sites” value [3] is given as “greater than 10” and the “pKa of the six strongly acidic proton dissociation sites” value ([3]; first dissociation proton of each phosphate group) is given as ~1.5. The “time to reach targeted tumor tissue” value [5] was “as early as one hour post-administration”.
With “Butyryl L-Carnitine Phytate (in a 6:1 mole ratio) [Example Embodiment 5]” the pH value [2] was 4.
In the case of “L-Carnitine Phytate (in a 6:1 mole ratio) [Example Embodiment 2]”, the “necropsy findings in hearts, livers, spleens, lungs, kidneys and intestines” value (mice; single oral dose 5-25 g/Kg, dead mice necropsied) is reported as “not any obvious abnormalities observed” and the “acute oral LD50” value (mice; single oral dose, observed for 14 days) is reported as 14860 mg/kg.
With “Propinoyl L-Carnitine Phytate (in a 6:1 mole ratio) [Example Embodiment 4]” the odor [1] was “odorless” and the pH value [2] was 4.
